Measurements from US12590062B2, “PD-1/PD-L1 inhibitors” (Gilead Sciences, Inc., priority 2017, dated 2026).

What was measured:
PD-1/PD-L1 interaction = target: T1, PD-1/PD-L1 interaction (Homo sapiens, UniProt Q9NZQ7); test: PD-1/PD-L1 NFAT reporter co-culture assay; format: cell-based; conditions: Jurkat PD-1 NFAT-luciferase cells co-cultured with aAPC-PD-L1 CHO cells, 6 hrs at 37° C.; read-out: EC50 NFAT Luciferase
T1 construct: expressed in transfected cells; host or cells: CHO cells (aAPC-PD-L1) co-cultured with Jurkat cells overexpressing PD-1 and an NFAT-luciferase reporter
T1 sequence (Q9NZQ7 19-290): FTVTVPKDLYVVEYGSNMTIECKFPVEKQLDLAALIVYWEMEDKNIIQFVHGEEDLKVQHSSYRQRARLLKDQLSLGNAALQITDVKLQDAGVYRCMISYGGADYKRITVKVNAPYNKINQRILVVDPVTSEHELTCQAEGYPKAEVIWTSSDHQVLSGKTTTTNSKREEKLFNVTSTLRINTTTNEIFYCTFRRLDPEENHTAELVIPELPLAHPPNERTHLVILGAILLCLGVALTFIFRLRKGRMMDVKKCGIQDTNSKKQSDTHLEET
In short: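 Compounds are scored by restoration of NFAT-luciferase signal in PD-1-expressing Jurkat cells cultured 6 h at 37 °C on CHO cells presenting anti-CD3 and PD-L1; EC50 values derive from four-parameter curve fitting.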

[1] = target: T2, interaction between the recombinant extracellular domain (ECD) of PD-1 and native cell-bound PD-L1 (Homo sapiens, UniProt Q9NZQ7); test: CHO/PD-L1 cell capture assay; format: cell-based; conditions: CHO cells overexpressing PD-L1, pre-incubated 1 hr with compound, captured on biotinylated Fc-PD-1 coated plates, 75 min at room temperature
T2 construct: expressed in transfected cells
T2 sequence (Q9NZQ7 19-290): as above
Method: EC50-CHO/PD-L1-Capture Assay:
Compounds were tested in a cell capture assay to determine if they can specifically block the interaction between the recombinant extracellular domain (ECD) of PD-1 and native cell-bound PD-L1. Binding affinity of stable CHO cells overexpressing PD-L1 with its cognate recombinant ligand coated on plates was measured by counting the number of ‘captured’ cells. High-capacity streptavidin- coated plates were incubated with biotylated-Fc-PD-1 for 2 hours in PBS. Unbound ligand was washed out. CHO-PD-L1 cells (resuspended in PBS pH 7.4, 0.5 mM EDTA, and 2% bovine serum albumin) were pre-incubated for 1 hr with compound, dispensed into each PD-1 ECD coated well and then incubated for 75 min at room temperature. To stop the capture assay, a fixative/staining solution (final concentrations are 1.3% glutaraldehyde and 1.67 μM Draq5) was gently added to the cells and incubated for 2 hrs at room temperature. Unbound cells were then washed out and ‘captured’ cells were enumerated using a high-content microscopy system. EC50 values were calculated from the fit of the dose-response curves to a four-parameter equation. Representative data are shown below in Table 2.

SMILES	EC50 (PD-1/PD-L1 interaction) [µM]	EC50 [1] [µM]
COc1nc(O[C@H]2CCc3c(-c4cccc5c4CC[C@@H]5Oc4nc(OC)c(CNCC(=O)O)cc4Cl)cccc32)ccc1CNCC(=O)O [Example 1, ((6-(((1S,1′S)-1′-((5-(((carboxymethyl)amino)methyl)-3-chloro-6-methoxypyridin-2-yl)oxy)-2,2′,3,3′-tetrahydro-1H,1′H-[4,4′-biinden]-1-yl)oxy)-2-methoxypyridin-3-yl)methyl)glycine]	0.516	0.382
COc1nc(O[C@H]2CCc3c(-c4cccc5c4CC[C@@H]5Oc4nc(OC)c(CNCC(=O)O)cc4Cl)cccc32)c(Cl)cc1CNCC(=O)O [Example 2, 2,2′-((((((1S,1′S)-2,2′,3,3′-tetrahydro-1H,1′H-[4,4′-biindene]-1,1′-diyl)bis(oxy))bis(5-chloro-2-methoxypyridine-6,3-diyl))bis(methylene))bis(azanediyl))diacetic acid]	0.456	1.27
COc1nc(O[C@H]2CCc3c(-c4cccc5c4CC[C@@H]5Oc4nc(OC)c(CNC[C@@H](O)CC(=O)O)cc4Br)cccc32)c(Br)cc1CNCCO [Example 8, (S)-4-(((5-bromo-6-(((1S,1′S)-1′-((3-bromo-5-(((2-hydroxyethyl)amino)methyl)-6-methoxypyridin-2-yl)oxy)-2,2′,3,3′-tetrahydro-1H,1′H-[4,4′-biinden]-1-yl)oxy)-2-methoxypyridin-3-yl)methyl)amino)-3-hydroxybutanoic acid]	0.29	0.0797
COc1nc(O[C@H]2CCc3c(-c4cccc5c4CC[C@@H]5Oc4nc(OC)c(CNCCO)cc4Br)cccc32)c(Br)cc1CNCCO [Example 10, 2,2′-((((((1S,1′S)-2,2′,3,3′-tetrahydro-1H,1′H-[4,4′-biindene]-1,1′-diyl)bis(oxy))bis(5-bromo-2-methoxypyridine-6,3-diyl))bis(methylene))bis(azanediyl))bis(ethan-1-ol)]	0.502	0.185
COc1nc(OCc2cccc(-c3cccc(COc4nc(OC)c(CN5CC[C@@H](O)C[C@H]5C(=O)O)cc4Cl)c3C)c2C)c(Cl)cc1CN1CC[C@@H](O)C[C@H]1C(=O)O [Example 47, (2S,2′S,4R,4′R)-1,1′-(((((2,2′-dimethyl-[1,1′-biphenyl]-3,3′-diyl)bis(methylene))bis(oxy))bis(5-chloro-2-methoxypyridine-6,3-diyl))bis(methylene))bis(4-hydroxypiperidine-2-carboxylic acid)]	0.503	0.226

The next lines start with the values.

EC50 (PD-1/PD-L1 interaction) [µM]	EC50 [1] [µM]	SMILES
0.687	0.0301	Cc1c(COc2cc(OCc3cncc(C#N)c3)c(CNC[C@@H](O)CC(=O)O)cc2Cl)cccc1-c1cccc(-c2ccc3cc(CNC[C@@H](O)CC(=O)O)ccc3c2)c1C [Example 31, (S)-4-(((6-(3′-((4-((((S)-3-carboxy-2-hydroxypropyl)amino)methyl)-2-chloro-5-((5-cyanopyridin-3-yl)methoxy)phenoxy)methyl)-2,2′-dimethyl-[1,1′-biphenyl]-3-yl)naphthalen-2-yl)methyl)amino)-3-hydroxybutanoic acid]
0.075	0.166	COc1nc(OCc2cccc(-c3cccc(COc4nc(OC)c(CN[C@@](C)(CO)C(=O)O)cc4Br)c3C)c2C)c(Br)cc1CN[C@@](C)(CO)C(=O)O [Example 45, (2S,2′S)-2,2′-((((((2,2′-dimethyl-[1,1′-biphenyl]-3,3′-diyl)bis(methylene))bis(oxy))bis(5-bromo-2-methoxypyridine-6,3-diyl))bis(methylene))bis(azanediyl))bis(3-hydroxy-2-methylpropanoic acid)]
0.412	0.298	COc1nc(OCc2cccc(-c3cccc(COc4nc(OC)c(CN5C[C@@H](O)C[C@H]5C(=O)O)cc4Cl)c3C)c2C)c(Cl)cc1CN1C[C@@H](O)C[C@H]1C(=O)O [Example 48, (2S,2′S,4S,4'S)-1,1′-(((((2,2′-dimethyl-[1,1′-biphenyl]-3,3′-diyl)bis(methylene))bis(oxy))bis(5-chloro-2-methoxypyridine-6,3-diyl))bis(methylene))bis(4-hydroxypyrrolidine-2-carboxylic acid)]
